# Experimental data published in patent publication US20110151020A1, “ACTIVE SUBSTANCE COMBINATION WITH GEMCITABINE FOR THE TREATMENT OF EPITHELIAL CANCER” (priority 2008, published 2011).
# Entries after “also recorded” stand apart in the source; their conditions may differ. Where two headings read alike, the source gives them in different places.
# B1: Folistatin: single chain glycoprotein, inhibitor of Activin signaling (protein, UniProt P19883 30-344, looked up)
# Follistatin: GNCWLRQAKNGRCQVLYKTELSKEECCSTGRLSTSWTEEDVNDNTLFKWMIFNGGAPNCIPCKETCENVDCGPGKKCRMNKKNKPRCVCAPDCSNITWKGPVCGLDGKTYRNECALLKARCKEQPELEVQYQGRCKKTCRDVFCPGSSTCVVDQTNNAYCVTCNRICPEPASSEQYLCGNDGVTYSSACHLRKATCLLGRSIGLAYEGKCIKAKSCEDIQCTGGKKCLWDFKVGRGRCSLCDELCPDSKSDEPVCASDNATYASECAMKEAACSSGVLLEVKHSGSCNSISEDTEEEEEDEDQDYSFPISSILEW
# B2: recombinant Nodal: recombinant Nodal, member of the TGF-β superfamily, used as stimulus (protein, UniProt Q96S42 238-347, looked up)
# Nodal homolog: HHLPDRSQLCRKVKFQVDFNLIGWGSWIIYPKQYNAYRCEGECPNPVGEEFHPTNHAYIQSLLKRYQPHRVPSTCCAPVKTKPLSMLYVDNGRVLLDHHKDMIVEECGCL
# Legend:
# [1] = tested on: CD133+ pancreatic cancer stem cells (L3.6pl cells); assay: CD133 content by flow cytometry in L3.6pl pancreatic cancer cells; format: cell-based, human; conditions: for CD133 content of L3.6pl cells: Example 4.2, inhibitor alone or with Gemcitabine
# Protocol: In this experiment, potentially effective substances for the targeted elimination of CD133^+ pancreatic cancer stem cells (CSC) were screened by means of flow cytometry following 48 hours of therapy. […] As a Gemcitabine concentration of 100 ng/ml was the lowest concentration capable of achieving a strong relative enrichment for CD133^+ cells through depletion of CD133^− cells, this concentration was chosen for subsequent experiments.
# (§1) Human pancreatic cancer cell line. The highly metastatic human pancreatic cell line L3.6pl was maintained in DMEM medium (Invitrogen, Karlsruhe, Germany) with 12% Fetal Calf Serum (Biochrom, Berlin, Germany), Glutamax (Invitrogen), non-essential amino acids, and vitamins (all from PAN, Aidenbach, Germany) (Hermann et al., 2007, supra). Cultures were kept no longer than 4 weeks after recovery from frozen stocks. CSC spheres were cultured in DMEM-F12 supplemented with B27 (Gibco, Karlsruhe, Germany) and FGF-2 (PeproTech EC, London, United Kingdom) (Hermann et al., 2007, supra).
# Cytometry. Pancreatic CSC were identified by CD133/1-APC or CD133-PE (Miltenyi, Bergisch-Gladbach, Germany) (Hermann et al., 2007, supra). Side population experiments were performed as described by Goodell et al. (1996) (see Goodell et al., 1996, J Exp Med 183, 1797-1806) and cells were identified by exclusion of the vital dye Hoechst 33342. To detect activation of the PI3K/Akt/mTOR pathway by means of the phosphorylation status of the s6 ribosomal protein (s6rp), cells cultivated with standard medium were stained with a rabbit anti-phospho-S6 ribosomal protein antibody (Cell Signalling Technology, Danvers, Mass.).
# (§2) In vitro treatment of pancreatic cancer cells. […] For the evaluation of the in vivo tumorigenicity, […] L3.6pl cells were pretreated with the respective regimen and the remaining viable cells were orthotopically implanted into the pancreas of nude mice and evaluated on day 35. For the systemic infusion assay, cells were labelled with the Qtracker 800 labelling kit (Invitrogen) according to the manufacturer's instructions, and 5×10^5 cells were injected intravenously into mice. After 4 weeks, explanted lungs were scanned for metastases with a near-infrared imaging platform (Odyssey, Li-cor, Lincoln, Nebr.). Positive signals were verified by histology (H&E staining).
# (§3) Using SB431542, a specific inhibitor of the receptors for Nodal and Activin, ALK-4 and -7 respectively, it was investigated whether the content of the CD133(+) population is affected by inhibition of Activin/Nodal signaling. As mutations affecting the TGF-superfamily pathway are very common in pancreatic neoplasms, pancreatic cell lines harboring different mutations in this pathway were screened (Table 1).
# pancreatic CSC spheres = assay: CSC-enriched tumour sphere assay; format: cell-based, human; conditions: ultra low adhesion 6-well plates
# Protocol: First, pancreatic CSC were clonally expanded as CSC-enriched spheres (FIGS. 18C1-18C5). Floating spheres were treated in ultra low adhesion 6-well plates. After completion of the treatment, five randomly selected high-power fields were analyzed.
# as §1
# CSC population = conditions: fraction of original population remaining; cited from earlier work
# [2] = tested on: L3.6pl pancreatic cancer cells; assay: Tumorigenicity after in vitro pre-treatment and orthotopic implantation; format: in vivo, mice
# Protocol: After 96 hours of pretreatment, the remaining viable cells were orthotopically implanted into the pancreas of mice, which received no further treatment in vivo.
# Cultivated pancreatic cancer cells were exposed to either Gemcitabine alone representing clinical standard therapy, SB431542 alone, or a combination of Gemcitabine and SB431542 in the above given respective concentrations. After 96 hours of pretreatment, the remaining viable cells were orthotopically implanted into the pancreas of mice, which received no further treatment in vivo.
# A prerequisite of CSC is their ability to form tumours in secondary recipients. Due to the limited number of cancer (stem) cells that can be obtained from primary tissues, it is virtually impossible to reproducibly perform in vivo treatment experiments with fresh patient-derived cells. Therefore, all subsequent in vivo experiments were performed with the established L3.6pl pancreatic cancer cells. The design of the experiment is illustrated in FIG. 20A. […] After 4 days of pretreatment, the surviving cells were orthotopically implanted into the pancreas, which received no further in vivo treatment. Tumorigenicity was first determined by PET scans on day 30 (FIGS. 20B, 20C; left panel) and by final macroscopic and microscopic histological evaluation on day 35 (FIGS. 20B, 20C; right panel).
# Animals and Orthotopic Implantation of Tumour Cells. Single-cell suspensions were orthotopically implanted into the pancreas of female NMRI nu/nu mice (Janvier, Le Genest-Saint-Isle, France) (Hermann et al., 2007, supra). Size and weight of the pancreatic tumours were monitored.
# as §2
# [3] = tested on: CD133+ cancer stem cells in tumour cell lines; assay: CD133 content by flow cytometry in tumour cell lines after 48 hours of in-vitro treatment; format: cell-based, human
# Protocol: As a first step the content of cancer stem cells (measured as “CD 133-content”) in the whole population of tumour cells was measured by flow cytometry (FIGS. 1A-1C).
# As a first step the content of cancer stem cells (measured as “CD 133-content”) within the entire tumour cell population was measured by flow cytometry (FIGS. 10A-10C).
# CD133-positive cells = assay: Cell cycle / apoptosis of CD133-positive cells (BrDU flow kit); format: cell-based
# Description: As the precise fate of CD133-positive cells during treatment with antagonists of Activin or Nodal was to be assessed, the cell cycle of these cells was investigated using a BrDU flow kit (see FIGS. 26A-26G).
# [4] = tested on: primary human pancreatic cancer tissue; assay: In vivo treatment of implanted patient pancreatic tumor tissue with gemcitabine plus SB431542; set-up: species or system mice; conditions: mouse, in vivo
# Protocol: FIG. 33: In vivo treatment with the Alk4/7 inhibitor SB431542. This illustrates Nodal/Activin inhibition to eliminate primary human pancreatic CSC in vivo. Tumor tissue from patient with pancreatic cancer was implanted into immunocompromised mice. Treatment was started on day 7 after implantation. Mice were randomized to gemcitabine alone or gemcitabine plus SB431542. Tumor growth was assessed on day 28.
# Alk4/7 = assay: Smad2 phosphorylation after recombinant Nodal; format: cell-based
# MiaPaca cells = assay: CD133 content by flow cytometry in MiaPaCa cells; format: cell-based, human
# Description: as §3, with “1). […] Without being bound thereto, this indicates a Nodal/[…] mediated pathway being independent from SMAD4 as an underlying mechanism.” for “1).”
# [5] = tested on: primary human pancreatic cancer cells; assay: Sphere formation in primary human pancreatic cancer cells; format: cell-based
# BxPC3 cells = assay: CD133 content by flow cytometry in BxPC3 cells; format: cell-based, human
# Description: as §3, with “1). […] Without being bound thereto, this indicates a Nodal/[…] mediated pathway being independent from SMAD4 as an underlying mechanism.” for “1).”
# CD133 positive CSC = assay: CD133 positive population after extracellular antagonists of Nodal and Activin A; format: cell-based
# Description: Furthermore, cells in culture were subjected to extracellular antagonists of Nodal (Lefty) and Activin A (Follistatin) to see whether both components are functionally relevant for the maintenance of the CD133 positive CSC compartment.
# [6] = tested on: sphere derived cells (185s); assay: Soft agar colony formation assay; format: cell-based; conditions: soft agar assay 14d
# Description: FIGS. 31A-D: show a Gain of function by Nodal stimulation—Sphere derived cells (185s) bear a higher colony forming capacity as compared to adherent cells (185) as evidence for an enrichment in cancer stem cells (in a soft agar assay 14d).
# [7] = 5 μM SB431542, 100 ng/ml Gemcitabine, ALK5 inhibitor SB-505124
molecule,measurement,setting,value
"CC1=C2C[C@H]3[C@@H](CC=C4C[C@@H](O)CC[C@@]43C)[C@@H]2CC[C@]12O[C@@H]1C[C@H](C)CN[C@H]1[C@H]2C [Cyclopamine, 11-deoxojervine]",CD133+ cell content,"[1]; 48 hours of therapy, Gemcitabine 100 ng/ml","moderate, albeit significant decrease"
same,CD133 content,"[1]; inhibitor alone, CUR199691 10 μM",55%
same,tumour spheres / CD133+ cells in CSC-enriched spheres,pancreatic CSC spheres,reduction of tumour spheres
same,reduction of the original CSC population (aldehyde dehydrogenase marker),CSC population,⅓
same,tumour take rate / tumorigenicity,"[2]; 4 days of pretreatment, PET day 30, histology day 35",neither Cyclopamine nor Rapamycin monotherapy significantly affected tumour take rates
same,content of cancer stem cells (CD 133-content),"[3]; 100 ng/ml Gemcitabine, 100 ng/ml Rapamycin, 10 μM Cyclopamine, separately or triple combination","None of the investigated molecules (Gemcitabine, Rapamycin and Cyclopamine) was capable of significantly reducing"
NC(=O)c1ccc(-c2nc(-c3ccc4c(c3)OCO4)c(-c3ccccn3)[nH]2)cc1 [SB431542],induction of apoptosis in CD133-positive cells,CD133-positive cells,modest induction of apoptosis
same,CD133 content 24 hours after withdrawal of therapy,[1]; 24 hours after withdrawal,already started to approach control level
same,CD133 content 48 h after withdrawal of therapy,[1]; 48 h after withdrawal,enrichment for CD133 compared to base level
same,CD133 content of L3.6pl cells,[1],decrease; also recorded: drastically reduced
same,body weight,[4],lack of change
same,severe side effects,[4],did not result in severe side effects
same,white blood cell counts (WBC),[4],lack of change
same,phosphorylation of Smad2 (pSmad2),Alk4/7,abrogated this increase in pSmad2
same,CD133(+) sub-population of MiaPaca cells,MiaPaca cells,decrease
same,cell viability (dapi staining),[5],did not affect cell viability
same,sphere formation,[5],in a dose-dependent manner reduced sphere formation
same,CD133 content of BxPC3 cells,BxPC3 cells,no response
same,tumorigenicity after in vitro pre-treatment,"[2]; 96 hours pretreatment, 100 ng/ml Gemcitabine, 5 μM SB431542",close to no effect; also recorded: did not affect the tumorigenicity
same,content of cancer stem cells (CD 133-content),[3]; [7],significant reduction
Cc1cccc(-c2[nH]c(C(C)(C)C)nc2-c2ccc3c(c2)OCO3)n1 [SB505124],CD133 content of L3.6pl cells,[1],neither alone nor in combination with Gemcitabine an effect
same,content of cancer stem cells (CD 133-content),[3]; [7],did not lead to significant reduction
B1,CD133 positive CSC population,CD133 positive CSC,reduction of CD133 positive CSC that was similar to the reduction seen for Lefty
same,CD133 positive CSC population,CD133 positive CSC; listed as folistatin,reduction of CD133 positive cancer stem cells
B2,colony formation,[6],further increase in colony formation
same,phosphorylation of Smad2 (pSmad2),Alk4/7,increased phosphorylation of downstream Smad2
